{
  "source": "patent US20210002371A1",
  "about": "“COMBINATION OF AN ANTI-PD-L1 ANTIBODY AND IDO1 INHIBITOR FOR THE TREATMENT OF CANCER” (Merck Patent GmbH, priority 2017, published 2021)",
  "key": {"[1]": {"tested_on": "CT26-KSA colon carcinoma cells", "assay": "Anti-tumor efficacy in CT26-KSA tumor-bearing mice (s.c. colon carcinoma model)", "assay_type": "in vivo, BALB/c female mice", "details": "M4112 200 mg/kg p.o. 2x/day for 3 weeks, avelumab 400 μg i.v. Days 0, 3, 6", "procedure": "(§1) Tumor growth data are presented in graphical form as the mean and standard error of the mean (SEM) of tumor volumes every 3 or 4 days. Two-way repeated measures analysis of variance (RM ANOVA) with Tukey's post-test was performed to assess differences in tumor volumes between treatment groups. Treatment/Control (T/C) values were calculated as the mean tumor volume of the treatment group divided by the mean tumor volume of the control group on the last day of observation and are expressed as percentages. In all cases, p<0.05 was considered statistically significant. Kaplan Meier survival curves were analyzed by Log-Rank (Mantel-Cox) test. A Bonferroni-corrected significance threshold of p<0.0125 was used to account for multiple comparisons.\nThe combination treatment of avelumab and M4112 in a CT26-KSA murine model was undertaken to evaluate the anti-tumor activity in BALB/c mice. […] The tumor volume, mice survival and mouse body weight were measured. […]\nCT26-KSA cells were cultured in RPMI-1640 medium containing 10% FBS, 2 mM L-glutamine, 0.1 mM non-essential amino acids (NEAA), 1 mM Na Pyruvate, 1% MEM vitamin solution and 1% G418 antibiotic (1 mg/mL). […] Cells were harvested by trypsinization with TrypLE Express and viable cell counts were determined using a Countess or hematocrit chamber cell counter and trypan blue exclusion staining. […]"}, "[2]": {"tested_on": "MC38 colon carcinoma cells", "assay": "Anti-tumor efficacy in MC38 tumor-bearing mice (s.c. colon carcinoma model)", "assay_type": "in vivo, C57BL/6 female mice", "details": "Day 24; M4112 200 mg/kg p.o. 2x/day for 4 weeks; avelumab 400 μg i.v. Days 0, 2, 4; control = M4112 vehicle + isotype control", "procedure": "as §1\nThe combination treatment of avelumab and M4112 in the MC38 murine model was undertaken to evaluate the anti-tumor activity in C57BL/6 mice. […] The tumor volume, mice survival and mouse body weight were measured.\nMC38 cells were cultured in DMEM containing 4.5 g/L D-glucose, 2 mM glutamine, and 110 mg/L sodium pyruvate and supplemented with 10% FBS, 0.1 mM MEM NEAA, and penicillin/streptomycin. […] Cells were harvested by trypsinization with TrypLE Express and viable cell counts were determined using a Countess or hematocrit chamber cell counter and trypan blue exclusion staining. […]"}, "[3]": {"tested_on": "IDO1 expressing mDCs co-cultured with PBMCs", "assay": "One-way Mixed Lymphocyte Reaction (MLR) assay, IFNγ production by ELISA", "assay_type": "cell-based, human", "details": "M4112 5 μM, avelumab 0.61-10000 ng/mL", "procedure": "High levels of IDO1 in mDCs correlate with suppressed avelumab activity (IFNγ production) in the one-way MLR assay, which is reversed in an avelumab dose-dependent manner when M4112 is used in combination. Prior to the one-way MLR assay, imDCs from donor 17988 were treated with 1 μg/mL LPS for two days to obtain mDCs. Cells were stained with either an isotype control Phycoerythrin (PE) antibody or an anti-IDO1-PE antibody. (A-B) Stained cells were analyzed via FACS. Purple (solid curve) represents isotype control stained cells and green (transparent curve) represents IDO1-PE stained cells. […] On (C) Day 4 (Experiment A) or (D) Day 3 (Experiment B) of the MLR assay, IFNγ levels ([…]) were measured in the co-culture supernatant via IFNγ ELISA. […]\nThis example describes the in vitro characterization of M4112, alone and in combination with the anti-tumor compound avelumab, using one-way Mixed Lymphocyte Reaction (MLR) assays. […] Using this functional assay, the immune IDO1 expressing cells (mDCs) were cultured with PBMCs in the presence or absence of the IDO1/TDO2 inhibitor, M4112, and the immune response was evaluated by looking at IFNγ production. […]\nA one-way MLR assay was performed with a 2.3:1 ratio of PBMC to mDC (stimulated with LPS) under two different conditions. […] Both experiments measured the change in IFNγ concentration using the optical density of a standard curve from an ELISA."}},
  "data": [
    {"smiles": "NS(=O)(=O)[C@H]1CC[C@](F)(CC[C@H]2c3ccccc3-c3cncn32)CC1", "note": "[Compound M4112, c-4-fluoro-t-4-[(S)-2-(5H-imidazo[5,1-a]isoindol-5-yl)-ethyl]-cyclohexane-r-1-sulfonic acid amide]", "values": [
      {"measurement": "median survival time", "setting": "[1]; CT26-KSA tumor-bearing mice", "value": 30.5, "unit": "days"},
      {"measurement": "T/C (mean tumor volume of treatment group / mean tumor volume of control group)", "setting": "[1]; Day 21, control = M4112 vehicle + isotype control", "value": 78, "unit": "%"},
      {"measurement": "T/C (mean tumor volume of treatment group / mean tumor volume of control group)", "setting": "[2]", "value": 72, "unit": "%"},
      {"measurement": "avelumab activity (IFNγ production) in MLR", "setting": "[3]; Experiment A: IDO1-high mDCs, Day 4", "value": "the activity of avelumab was restored to normal levels"},
      {"measurement": "avelumab activity (IFNγ production) in MLR", "setting": "[3]; Experiment B: IDO1-low mDCs, Day 3", "value": "no change in avelumab activity"}
    ]}
  ]
}
